In patent US20260053932A1, “COMPOUNDS AND METHODS FOR THE TARGETED DEGRADATION OF ANDROGEN RECEPTOR AND ASSOCIATED METHODS OF USE” (Arvinas Operations, Inc., priority 2020, published 2026):

test system: androgen receptor (AR) in LNCaP and/or VCaP cells; assay: Androgen Receptor ELISA assay (AR degradation); type: cell-based; details: degradation of AR ELISA in LNCaP and/or VCaP cells; Table 2C; read-out: DC50 Code*
How it was run: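 VCaP cells grown ≥3 days, then treated 5 h with compound in media containing 1 nM R1881 (10× stock). Cells lysed and AR quantified by sandwich ELISA (mouse AR detection Ab, HRP anti-mouse, TMB). DC50 and Dmax derived from AR degradation.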

DC50, < 1 nM:
Cc1cc(O[C@H]2C(C)(C)[C@H](NC(=O)c3cnc(N4CC(CN[C@H]5C[C@H](Oc6ccc7c(c6)C(=O)N(C6CCC(=O)NC6=O)C7=O)C5)C4)nc3)C2(C)C)cc(C)c1C#N (stereo partly shown) [compound 82, N-((1r,3r)-3-(4-cyano-3,5-dimethylphenoxy)-2,2,4,4-tetramethylcyclobutyl)-2-(3-((((1r,3r)-3-((2-(2,6-dioxopiperidin-3-yl)-1,3-dioxoisoindolin-5-yl)oxy)cyclobutyl)amino)methyl)azetidin-1-yl)pyrimidine-5-carboxamide]
CCN(CC1CCN(c2ncc(C(=O)N[C@H]3C(C)(C)[C@H](Oc4cc(C)c(C#N)c(C)c4)C3(C)C)cn2)CC1)[C@H]1C[C@H](Oc2ccc3c(c2)C(=O)N(C2CCC(=O)NC2=O)C3=O)C1 (stereo partly shown) [compound 83, N-((1r,3r)-3-(4-cyano-3,5-dimethylphenoxy)-2,2,4,4-tetramethylcyclobutyl)-2-(4-((((1r,3r)-3-((2-(2,6-dioxopiperidin-3-yl)-1,3-dioxoisoindolin-5-yl)oxy)cyclobutyl)(ethyl)amino)methyl)piperidin-1-yl)pyrimidine-5-carboxamide]
CC(C)N(CC1CCN(c2ncc(C(=O)N[C@H]3C(C)(C)[C@H](Oc4ccc(C#N)c(Cl)c4)C3(C)C)cn2)CC1)[C@H]1CC[C@H](Oc2ccc3c(c2)C(=O)N(C2CCC(=O)NC2=O)C3=O)CC1 (stereo partly shown) [compound 84, N-((1r,3r)-3-(3-chloro-4-cyanophenoxy)-2,2,4,4-tetramethylcyclobutyl)-2-(4-((((1r,4r)-4-((2-(2,6-dioxopiperidin-3-yl)-1,3-dioxoisoindolin-5-yl)oxy)cyclohexyl) (isopropyl)amino)methyl)piperidin-1-yl)pyrimidine-5-carboxamide]
Cc1cc(O[C@H]2C(C)(C)[C@H](NC(=O)c3cnc(N4CCC(CCN5CC(Oc6ccc7c(c6)C(=O)N(C6CCC(=O)NC6=O)C7=O)C5)CC4)nc3)C2(C)C)cc(C)c1C#N (stereo partly shown) [compound 85, N-((1r,3r)-3-(4-cyano-3,5-dimethylphenoxy)-2,2,4,4-tetramethylcyclobutyl)-2-(4-(2-(3-((2-(2,6-dioxopiperidin-3-yl)-1,3-dioxoisoindolin-5-yl)oxy)azetidin-1-yl)ethyl)piperidin-1-yl)pyrimidine-5-carboxamide]
Cc1cc(O[C@H]2C(C)(C)[C@H](NC(=O)c3cnc(N4CCC(CN(C)[C@H]5C[C@H](Oc6ccc7c(c6)C(=O)N(C6CCC(=O)NC6=O)C7=O)C5)CC4)nc3)C2(C)C)cc(C)c1C#N (stereo partly shown) [compound 86, N-((1r,3r)-3-(4-cyano-3,5-dimethylphenoxy)-2,2,4,4-tetramethylcyclobutyl)-2-(4-((((1r,3r)-3-((2-(2,6-dioxopiperidin-3-yl)-1,3-dioxoisoindolin-5-yl)oxy)cyclobutyl) (methyl)amino)methyl)piperidin-1-yl)pyrimidine-5-carboxamide]
CC(C)N(CC1CC2(C1)CN(c1ncc(C(=O)N[C@H]3C(C)(C)[C@H](Oc4ccc(C#N)c(Cl)c4)C3(C)C)cn1)C2)[C@H]1C[C@H](Oc2ccc3c(c2)C(=O)N(C2CCC(=O)NC2=O)C3=O)C1 (stereo partly shown) [compound 87, N-((1r,3r)-3-(3-chloro-4-cyanophenoxy)-2,2,4,4-tetramethylcyclobutyl)-2-(6-((((1r,3r)-3-((2-(2,6-dioxopiperidin-3-yl)-1,3-dioxoisoindolin-5-yl)oxy)cyclobutyl) (isopropyl)amino)methyl)-2-azaspiro[3.3]heptan-2-yl)pyrimidine-5-carboxamide]
Cc1cc(O[C@H]2C(C)(C)[C@H](NC(=O)c3cnc(N4CCC(CN(C(C)C)[C@H]5C[C@H](Oc6cccc7c6C(=O)N(C6CCC(=O)NC6=O)C7=O)C5)CC4)nc3)C2(C)C)cc(C)c1C#N (stereo partly shown) [compound 88, N-((1r,3r)-3-(4-cyano-3,5-dimethylphenoxy)-2,2,4,4-tetramethylcyclobutyl)-2-(4-((((1r,3r)-3-((2-(2,6-dioxopiperidin-3-yl)-1,3-dioxoisoindolin-4-yl)oxy)cyclobutyl) (isopropyl)amino)methyl)piperidin-1-yl)pyrimidine-5-carboxamide]
COCCOCCN(CC1CCN(c2ncc(C(=O)N[C@H]3C(C)(C)[C@H](Oc4cc(C)c(C#N)c(C)c4)C3(C)C)cn2)CC1)[C@H]1C[C@H](Oc2ccc3c(c2)C(=O)N(C2CCC(=O)NC2=O)C3=O)C1 (stereo partly shown) [compound 89, N-((1r,3r)-3-(4-cyano-3,5-dimethylphenoxy)-2,2,4,4-tetramethylcyclobutyl)-2-(4-((((1r,3r)-3-((2-(2,6-dioxopiperidin-3-yl)-1,3-dioxoisoindolin-5-yl)oxy)cyclobutyl)(2-(2-methoxyethoxy)ethyl)amino)methyl)piperidin-1-yl)pyrimidine-5-carboxamide]
Cc1cc(O[C@H]2C(C)(C)[C@H](NC(=O)c3cnc(N4CCC(CN(CCN5CCOCC5)[C@H]5C[C@H](Oc6ccc7c(c6)C(=O)N(C6CCC(=O)NC6=O)C7=O)C5)CC4)nc3)C2(C)C)cc(C)c1C#N (stereo partly shown) [compound 90, N-((1r,3r)-3-(4-cyano-3,5-dimethylphenoxy)-2,2,4,4-tetramethylcyclobutyl)-2-(4-((((1r,3r)-3-((2-(2,6-dioxopiperidin-3-yl)-1,3-dioxoisoindolin-5-yl)oxy)cyclobutyl)(2-morpholinoethyl)amino)methyl)piperidin-1-yl)pyrimidine-5-carboxamide]
COCCN(CC1CCN(c2ncc(C(=O)N[C@H]3C(C)(C)[C@H](Oc4cc(C)c(C#N)c(C)c4)C3(C)C)cn2)CC1)[C@H]1C[C@H](Oc2ccc3c(c2)C(=O)N(C2CCC(=O)NC2=O)C3=O)C1 (stereo partly shown) [compound 91, N-((1r,3r)-3-(4-cyano-3,5-dimethylphenoxy)-2,2,4,4-tetramethylcyclobutyl)-2-(4-((((1r,3r)-3-((2-(2,6-dioxopiperidin-3-yl)-1,3-dioxoisoindolin-5-yl)oxy)cyclobutyl)(2-methoxyethyl)amino)methyl)piperidin-1-yl)pyrimidine-5-carboxamide]
CC(C)N(C[C@H]1C2CN(c3ncc(C(=O)N[C@H]4C(C)(C)[C@H](Oc5ccc(C#N)c(Cl)c5)C4(C)C)cn3)C[C@H]21)[C@H]1C[C@H](Oc2ccc3c(c2)C(=O)N(C2CCC(=O)NC2=O)C3=O)C1 (stereo partly drawn) [compound 92, N-((1r,3S)-3-(3-chloro-4-cyanophenoxy)-2,2,4,4-tetramethylcyclobutyl)-2-((1S,5S)-6-((((1r,3S)-3-((2-(2,6-dioxopiperidin-3-yl)-1,3-dioxoisoindolin-5-yl)oxy)cyclobutyl) (isopropyl)amino)methyl)-3-azabicyclo[3.1.0]hexan-3-yl)pyrimidine-5-carboxamide]
COc1cc(O[C@H]2C(C)(C)[C@H](NC(=O)c3cnc(N4CCC(CN5CC(Oc6ccc7c(c6)C(=O)N(C6CCC(=O)NC6=O)C7=O)C5)CC4)cn3)C2(C)C)ccc1C#N (stereo partly shown) [compound 93, N-((1r,3r)-3-(4-cyano-3-methoxyphenoxy)-2,2,4,4-tetramethylcyclobutyl)-5-(4-((3-((2-(2,6-dioxopiperidin-3-yl)-1,3-dioxoisoindolin-5-yl)oxy)azetidin-1-yl)methyl)piperidin-1-yl)pyrazine-2-carboxamide]
COCCN(CC1CCN(c2ccc(C(=O)N[C@H]3C(C)(C)[C@H](Oc4ccc(C#N)c(OC)c4)C3(C)C)cc2)CC1)[C@H]1C[C@H](Oc2cc(OC)c3c(c2)C(=O)N(C2CCC(=O)NC2=O)C3=O)C1 (stereo partly shown) [compound 94, N-((1r,3r)-3-(4-cyano-3-methoxyphenoxy)-2,2,4,4-tetramethylcyclobutyl)-4-(4-((((1r,3r)-3-((2-(2,6-dioxopiperidin-3-yl)-7-methoxy-1,3-dioxoisoindolin-5-yl)oxy)cyclobutyl)(2-methoxyethyl)amino)methyl)piperidin-1-yl)benzamide]
CC(C)N(CC1CCN(c2ncc(C(=O)N[C@H]3C(C)(C)[C@H](Oc4ccc(C#N)c(Cl)c4)C3(C)C)cn2)CC1)[C@H]1C[C@H](Oc2ccc3c(c2)C(=O)N(C2CCC(=O)NC2=O)C3)C1 (stereo partly shown) [compound 95, N-((1r,3r)-3-(3-chloro-4-cyanophenoxy)-2,2,4,4-tetramethylcyclobutyl)-2-(4-((((1r,3r)-3-((2-(2,6-dioxopiperidin-3-yl)-3-oxoisoindolin-5-yl)oxy)cyclobutyl) (isopropyl)amino)methyl)piperidin-1-yl)pyrimidine-5-carboxamide]
COCCN(CC1CCN(c2ccc(C(=O)N[C@H]3C(C)(C)[C@H](Oc4cc(C)c(C#N)c(C)c4)C3(C)C)cc2)CC1)[C@H]1C[C@H](Oc2ccc3c(c2)C(=O)N(C2CCC(=O)NC2=O)C3=O)C1 (stereo partly shown) [compound 96, N-((1r,3r)-3-(4-cyano-3,5-dimethylphenoxy)-2,2,4,4-tetramethylcyclobutyl)-4-(4-((((1r,3r)-3-((2-(2,6-dioxopiperidin-3-yl)-1,3-dioxoisoindolin-5-yl)oxy)cyclobutyl)(2-methoxyethyl)amino)methyl)piperidin-1-yl)benzamide]
Cc1cc(O[C@H]2C(C)(C)[C@H](NC(=O)c3cnc(N4CCC(CN(CC(F)F)[C@H]5C[C@H](Oc6ccc7c(c6)CN(C6CCC(=O)NC6=O)C7=O)C5)CC4)nc3)C2(C)C)cc(C)c1C#N (stereo partly shown) [compound 97, N-((1r,3r)-3-(4-cyano-3,5-dimethylphenoxy)-2,2,4,4-tetramethylcyclobutyl)-2-(4-(((2,2-difluoroethyl)((1r,3r)-3-((2-(2,6-dioxopiperidin-3-yl)-1-oxoisoindolin-5-yl)oxy)cyclobutyl)amino)methyl)piperidin-1-yl)pyrimidine-5-carboxamide]
